Source: ChEMBL document CHEMBL3792360, “Antibacterial activity of Mannich bases derived from 2-naphthols, aromatic aldehydes and secondary aliphatic amines” (2016)
Converted amounts (≈) assume the structure as drawn.

Tests used:
Type in all cases: functional
Escherichia coli [1] = experiment: Antibacterial activity against Escherichia coli ATCC 35218 after 16 to 20 hrs by broth microdilution method
Escherichia coli [2] = experiment: Antibacterial activity against Escherichia coli ATCC 25922 after 16 to 20 hrs by broth microdilution method
Enterococcus faecalis = experiment: Antibacterial activity against Enterococcus faecalis ATCC 25912 after 16 to 20 hrs by broth microdilution method
Pseudomonas aeruginosa = experiment: Antibacterial activity against Pseudomonas aeruginosa CIP 82118 after 16 to 20 hrs by broth microdilution method
Staphylococcus aureus [3] = experiment: Antibacterial activity against Staphylococcus aureus […] after 16 to 20 hrs by broth microdilution method
Enterobacter cloacae = experiment: Antibacterial activity against Enterobacter cloacae CIP 103475 after 16 to 20 hrs by broth microdilution method
Citrobacter freundii = experiment: Antibacterial activity against Citrobacter freundii CIP 5732 after 16 to 20 hrs by broth microdilution method
Klebsiella pneumoniae = experiment: Antibacterial activity against Klebsiella pneumoniae CIP 53153 after 16 to 20 hrs by broth microdilution method
Proteus vulgaris = experiment: Antibacterial activity against Proteus vulgaris CIP 104989 after 16 to 20 hrs by broth microdilution method
Staphylococcus aureus [4] = experiment: Antibacterial activity against methicillin-resistant Staphylococcus aureus ATCC 43300 after 16 to 20 hrs by broth microdilution method

SMILES | MIC (Escherichia coli [1]) [µg/mL] | MIC (Escherichia coli [2]) [µg/mL] | MIC (Enterococcus faecalis) [µg/mL] | MIC (Pseudomonas aeruginosa) [µg/mL] | MIC (Staphylococcus aureus [3]) [µg/mL] | MIC (Enterobacter cloacae) [µg/mL] | MIC (Citrobacter freundii) [µg/mL] | MIC (Klebsiella pneumoniae) [µg/mL] | MIC (Proteus vulgaris) [µg/mL] | MIC (Staphylococcus aureus [4]) [µg/mL]
COc1ccc2ccc(O)c(C(c3cccc4ccccc34)N3CCCCC3)c2c1 (stereo not given) | > 512 | > 512 | > 512 | > 512 | > 512 | > 512 | > 512 | > 512 | > 512 | > 512
Oc1ccc2ccccc2c1C(c1ccc(Br)s1)N1CCCCC1 (stereo not given) | > 512 | > 512 | 16 (≈ 39.8 µM) | > 512 | 8 (≈ 19.9 µM) | > 512 | > 512 | > 512 | > 512 | 16 (≈ 39.8 µM)
Cc1cc(C)cc(C(c2c(O)ccc3ccccc23)N2CCC(C)CC2)c1 (stereo not given) | > 512 | > 512 | > 512 | > 512 | > 512 | > 512 | > 512 | > 512 | > 512 | > 512
COc1ccc2ccc(O)c(C(c3cccs3)N3CCCCC3)c2c1 (stereo not given) | > 512 | > 512 | 32 (≈ 90.5 µM) | > 512 | 16 (≈ 45.3 µM) | > 512 | > 512 | > 512 | > 512 | 16 (≈ 45.3 µM)
COc1ccc2ccc(O)c(C(c3cccc4ccccc34)N3CCC(C)CC3)c2c1 (stereo not given) | > 512 | > 512 | > 512 | > 512 | > 512 | > 512 | > 512 | > 512 | > 512 | > 512
Oc1ccc2cc(Br)ccc2c1C(c1cccs1)N1CCCCC1 (stereo not given) | > 512 | > 512 | 16 (≈ 39.8 µM) | > 512 | 8 (≈ 19.9 µM) | > 512 | > 512 | > 512 | > 512 | 8 (≈ 19.9 µM)
Oc1ccc2ccccc2c1C(c1cccs1)N1CCCCC1 (stereo not given) | > 512 | > 512 | 32 (≈ 98.9 µM) | > 512 | 16 (≈ 49.5 µM) | > 512 | > 512 | > 512 | > 512 | 8 (≈ 24.7 µM)
Oc1ccc2ccccc2c1C(c1cccs1)N1CCCC1 (stereo not given) | > 512 | > 512 | 32 (≈ 103 µM) | > 512 | 32 (≈ 103 µM) | > 512 | > 512 | > 512 | > 512 | 32 (≈ 103 µM)
CC1CCN(C(c2ccc(F)cc2)c2c(O)ccc3ccccc23)CC1 (stereo not given) | > 512 | > 512 | > 512 | > 512 | > 512 | > 512 | > 512 | > 512 | > 512 | > 512
COc1ccc2ccc(O)c(C(c3ccccn3)N3CCC(C)CC3)c2c1 (stereo not given) | > 512 | > 512 | > 512 | > 512 | > 512 | > 512 | > 512 | > 512 | > 512 | > 512
CC1CCN(C(c2cccc(Cl)c2)c2c(O)ccc3cc(Br)ccc23)CC1 (stereo not given) | > 512 | > 512 | > 512 | > 512 | > 512 | > 512 | > 512 | > 512 | > 512 | > 512
CC1CCN(C(c2ccc(Br)s2)c2c(O)ccc3ccccc23)CC1 (stereo not given) | > 512 | > 512 | 16 (≈ 38.4 µM) | > 512 | 8 (≈ 19.2 µM) | > 512 | > 512 | > 512 | > 512 | 16 (≈ 38.4 µM)
CC1CCN(C(c2cccs2)c2c(O)ccc3ccccc23)CC1 (stereo not given) | > 512 | > 512 | 16 (≈ 47.4 µM) | > 512 | 8 (≈ 23.7 µM) | > 512 | > 512 | > 512 | > 512 | 8 (≈ 23.7 µM)
Oc1ccc2ccccc2c1C(c1cccc2ccccc12)N1CCCCC1 (stereo not given) | > 512 | > 512 | > 512 | > 512 | > 512 | > 512 | > 512 | > 512 | > 512 | > 512
CN1CCN(C(c2cccs2)c2c(O)ccc3ccccc23)CC1 (stereo not given) | > 512 | > 512 | 32 (≈ 94.5 µM) | > 512 | 32 (≈ 94.5 µM) | > 512 | > 512 | > 512 | > 512 | 32 (≈ 94.5 µM)
COc1ccc2ccc(O)c(C(c3ccccc3)N3CCC(C)CC3)c2c1 (stereo not given) | > 512 | > 512 | > 512 | > 512 | 8 (≈ 22.1 µM) | > 512 | > 512 | > 512 | > 512 | > 512

SMILES | MIC (Escherichia coli [1]) [µg/mL] | MIC (Escherichia coli [2]) [µg/mL] | MIC (Enterococcus faecalis) [µg/mL] | MIC (Pseudomonas aeruginosa) [µg/mL] | MIC (Staphylococcus aureus [3]) [µg/mL] | MIC (Enterobacter cloacae) [µg/mL] | MIC (Citrobacter freundii) [µg/mL] | MIC (Klebsiella pneumoniae) [µg/mL] | MIC (Proteus vulgaris) [µg/mL] | MIC (Staphylococcus aureus [4]) [µg/mL]
Oc1ccc2cc(Br)ccc2c1C(c1ccccc1)N1CCCCC1 (stereo not given) | > 512 | > 512 | > 512 | > 512 | > 512 | > 512 | > 512 | > 512 | > 512 | > 512
Oc1ccc2cc(Br)ccc2c1C(c1cccc(Cl)c1)N1CCCCC1 (stereo not given) | > 512 | > 512 | > 512 | > 512 | 8 (≈ 18.6 µM) | > 512 | > 512 | > 512 | > 512 | > 512
COc1ccc2ccc(O)c(C(c3ccccc3)N3CCCCC3)c2c1 (stereo not given) | > 512 | > 512 | > 512 | > 512 | > 512 | > 512 | > 512 | > 512 | > 512 | > 512
CC1CCN(C(c2cccc3ccccc23)c2c(O)ccc3ccccc23)CC1 (stereo not given) | > 512 | > 512 | > 512 | > 512 | > 512 | > 512 | > 512 | > 512 | > 512 | > 512
Oc1ccc2ccccc2c1C(c1cccs1)N1CCOCC1 (stereo not given) | > 512 | > 512 | 32 (≈ 98.3 µM) | > 512 | 32 (≈ 98.3 µM) | > 512 | > 512 | > 512 | > 512 | 32 (≈ 98.3 µM)
CC1CCN(C(c2cccc3ccccc23)c2c(O)ccc3cc(Br)ccc23)CC1 (stereo not given) | > 512 | > 512 | > 512 | > 512 | > 512 | > 512 | > 512 | > 512 | > 512 | > 512
CC1CCN(C(c2ccccc2)c2c(O)ccc3cc(Br)ccc23)CC1 (stereo not given) | > 512 | > 512 | > 512 | > 512 | > 512 | > 512 | > 512 | > 512 | > 512 | > 512
CN(C)C(c1cccs1)c1c(O)ccc2ccccc12 (stereo not given) | > 512 | > 512 | 16 (≈ 56.5 µM) | > 512 | 16 (≈ 56.5 µM) | > 512 | > 512 | > 512 | 128 (≈ 452 µM) | 16 (≈ 56.5 µM)
Oc1ccc2ccccc2c1C(c1cccs1)N1CCN(c2ccccc2)CC1 (stereo not given) | > 512 | > 512 | > 512 | > 512 | 64 (≈ 160 µM) | > 512 | > 512 | > 512 | > 512 | 16 (≈ 39.9 µM)
CC1CCN(C(c2ccccc2)c2c(O)ccc3ccccc23)CC1 (stereo not given) | > 512 | > 512 | > 512 | > 512 | > 512 | > 512 | > 512 | > 512 | > 512 | > 512
Oc1ccc2ccccc2c1C(c1ccc(F)cc1)N1CCCCC1 (stereo not given) | > 512 | > 512 | > 512 | > 512 | 8 (≈ 23.9 µM) | > 512 | > 512 | > 512 | > 512 | > 512
Oc1ccc2ccccc2c1C(c1ccccc1)N1CCCCC1 (stereo not given) | > 512 | > 512 | > 512 | > 512 | 8 (≈ 25.2 µM) | > 512 | > 512 | > 512 | > 512 | > 512
Oc1ccc2cc(Br)ccc2c1C(c1cccc2ccccc12)N1CCCCC1 (stereo not given) | > 512 | > 512 | > 512 | > 512 | > 512 | > 512 | > 512 | > 512 | > 512 | > 512
COc1ccc2ccc(O)c(C(c3cccs3)N3CCC(C)CC3)c2c1 (stereo not given) | > 512 | > 512 | 64 (≈ 174 µM) | > 512 | 16 (≈ 43.5 µM) | > 512 | > 512 | > 512 | > 512 | 16 (≈ 43.5 µM)
Cc1cc(C)cc(C(c2c(O)ccc3ccccc23)N2CCCCC2)c1 (stereo not given) | > 512 | > 512 | > 512 | > 512 | 4 (≈ 11.6 µM) | > 512 | > 512 | > 512 | > 512 | > 512
